From article PMC7352342, “Inhibition of Patched Drug Efflux Increases Vemurafenib Effectiveness against Resistant Braf^V600E Melanoma” (Cancers, 2020)

How the values were obtained:
WM9R cells = test: Cytotoxicity assay (neutral red), WM9R cells; type: cell-based; settings: WM9R; sPAH 20 µM; 24 h
Method: (§1) Human melanoma cell lines A375 and MeWo were purchased from ATCC, and cultured in DMEM medium supplemented with 10% fetal bovine serum and penicillin/streptomycin (Invitrogen) at 37 °C in a 5% CO2/95% water-saturated air atmosphere. Melanoma cell lines SKMEL 28, SKMEL V3, WM9S, and WM9R were provided by Robert Ballotti (C3M, Nice, France). MeWo-dxrR cells were obtained by adding increasing concentrations of doxorubicin, up to 0.2 µM, in the culture medium over 6 months. These cells were grown in medium supplemented with 0.2 µM dxr. WM9R cells were obtained by adding increasing concentrations of vemurafenib, up to 5 µM, in the culture medium over 6 months. These cells were grown in medium supplemented with 5 µM vemurafenib. HEK cells were grown in 75 mm tissue culture dishes (Falcon, Franklin Lakes, NJ, USA) in Dulbecco’s modified Eagle’s medium (Gibco, Life Technologies, Saint Aubin, France) supplemented with 10% fetal calf serum (Hyclone, Thermo Fisher Scientific GMBH, Ulm, Germany) and 1% penicillin/streptomycin (Gibco, Life Technologies, Saint Aubin, France) in a humidified incubator at 37 °C (5% CO2).
(§2) Cells were seeded in 96-well plates in triplicate and grown in medium to achieve 70 to 80% confluence. […] Measurements were made in microplate readers (Multiskan Go Microplate Spectrophotometer from Thermo Scientific).

[1] = Cytotoxicity assay (neutral red), WM9R cells; type: cell-based; settings: human, WM9R melanoma cells (vemurafenib-resistant); read-out: sPAH-IC50 (cytotoxicity of sPAH alone)
Method: as §1, §2

[2] = Metabolic stability with mice liver microsomes and NADPH; type: in vitro ADME
Method: A 10 µL aliquot of the sPAH stock solution (10 mM in DMSO) was diluted in 990 µL of a mixture of acetonitrile and water. This solution was then diluted 100-fold in phosphate buffer containing mice liver microsomes (0.5 mg/mL), 1 mM NADPH, and 3 mM MgCl2, and incubated at 37 °C. After 2, 10, 20, 40, and 60 min, 70 µL aliquots were collected and mixed with 70 µL acetonitrile at 0 °C. Equivalent experiments were performed without NADPH in order to identify chemical instability or enzymatic process not depending on NADPH, and with testosterone as a positive control. The enzymatic reaction was stopped by addition of acetonitrile. Samples were analyzed by LC–MS/MS on an UHPLC LC–MS 8030 (Shimazu, Kyoto, Japan).
For metabolite identification, 50 µM of sPAH were incubated with mice liver microsomes and NADPH. Two samples were prepared: one in which acetonitrile was added immediately (t0) and one in which acetonitrile was added after 30 min. After centrifugation for 5 min at 15,000× g, 2 samples of each supernatant were analyzed by LC–MS/MS on a LC–MS 8030 (Shimazu, Kyoto, Japan) and detected by selected ion monitoring (SIM).

chick embryos = test: sPAH toxicity on chick embryos; type: in vivo; settings: 10 days
Method: These experiments were performed by the company INOVOTION (La Tronche, France). […] At this time (E9), an access point to the chorioallantoic membrane (CAM) was made by drilling a small hole through the eggshell into the air sac and a 1 cm^2 window was cut in the eggshell above the CAM. Twenty-one eggs were used for each condition. […] MeWo cells cultivated in DMEM medium with 10% FBS (and 1% penicillin/streptomycin) were detached with trypsin, washed with complete medium, labeled, and suspended in PBS. An inoculum of 3 × 10^6 cells was added onto the CAM of each egg (E9). Eggs were then randomized in 4 groups. The chick embryos were then treated every two days (E11, E13, E15, E17) for 10 days in total, by adding 100 µL of vehicle (1% DMSO in PBS) as a negative control or 100 µL of sPAH at 3 different doses onto the CAM. The number of dead embryos evaluates the toxicity after 10 days of the treatment, as does the observation of 22 abnormality checkpoints in surviving embryos.

Question: What does the source list for `COc1cc(C)c(CC/C(C)=C/Cc2cc(O)ccc2O)c(C)c1C` [sPAH, Panicein A hydroquinone]?
Answer: change of the IC50 of vemurafenib in the presence of sPAH (WM9R cells): decrease by a factor of ten; IC50 [1]: 41 ± 6.2 µM; metabolic fate (LC-MS/MS) ([2]; 50 µM, mice liver microsomes and NADPH, 30 min): rapidly oxidized in its quinone form; half-life at 1 µM ([2]; mouse, liver microsomes, mice microsomes and NADPH, 37 °C): 1 min; abnormalities in surviving embryos (22 checkpoints) (chick embryos; 100 µM to 1 mM): no abnormalities were observed; acute toxicity (chick embryos; up to the highest dose of 1 mM): No acute toxicity was observed
